Marks after values point to notes of the source that are not given here.
Experiments:
[1] = system: FPN-deficient mice; assay: Acute injection of hinokitiol in flatiron mice, tissue iron; type: in vivo; conditions: 4 hours
Description: FIGS. 26A-26E show the results of acute injection of Hinokitiol in flatiron mice. Wild-type (+/+) and I (ffe/+) mice were administered hinokitiol by IP injection and were sacrificed after 4 h to measure iron content. (A) presents means f SEM (n=48/group). (B)-(E) present means±SEM (n=2/group). * P≤0.05, ** P≤0.005, and *** P≤0.001.
To characterize the effects of hinokitiol on iron mobilization and distribution in flatiron mice, hinokitiol was administered with increasing doses (1-50 mg/kg) via intraperitoneal (IP) injection. Mice were euthanized 4 hours post-administration, and blood and a range of tissues were collected. […] Total iron in a variety of tissues including liver and spleen was further measured by inductively coupled plasma mass spectrometry (ICP-MS).

[2] = Determination of the pKa of hinokitiol; type: physicochemical; conditions: 0.1 M KCl solution in water, spectrophotometric titration
Description: The pKa of hinokitiol was determined by spectrophotometric titration with varying pH. Hinokitiol (100 μM) was dissolved in a 0.1 M KCl solution in H2O and acidified to pH=3.0 (using 0.1 M HCl). The UV-Vis spectrum was repeatedly obtained upon sequential titration of 0.1 M KOH to obtain a range of pHs (3.0, 3.4, 3.9, 4.2, 4.6, 4.9, 6.0, 6.4, 7.0, 7.2, 7.6, 8.4, 9.3, 9.7, 10.4, 10.9, 11.7, 12.0).

[3] = system: Mfrn1-deficient zebrafish; assay: Hemoglobinization in Mfrn1-deficient zebrafish; type: in vivo, Danio rerio
[4] = Iron (II) binding affinity, ferrozine competition assay
Description: (§1) Specifically, the association constant for iron (II) was determined by a ferrozine competition assay (KA of ferrozine=3.65×10^15) (60). FeCl2 (25 μM) was pre-mixed with ferrozine (75 μM) in a 25 mM MES/Tris buffer at pH=7.0 containing 62.5 mM sodium ascorbate. Then increasing concentrations of small molecule (from 40X stocks in DMSO) were added to the indicated final concentrations. The solutions were allowed to equilibrate for 24 hours before reading of the absorbance at 562 nm. […] The system was allowed to equilibrate overnight, and the absorbance corresponding to the Fe(chelator)3 complex was determined. The EC50 values for each chelator were calculated by a nonlinear curve fit (Hill1) on OriginPro by plotting the absorbance vs. concentration of titrant, and the KA for each complex was determined from the equation: KA, ligand=(KA, competitor*[EC50])/[ligand] where the ligand is the molecule originally bound to iron, and the competitor is the competing chelator.

[5] = target: transferrin (Homo sapiens, UniProt P02787); assay: Removal of 55Fe from transferrin; type: biochemical; conditions: buffered solution, 1 nM transferrin
Sequence of transferrin (P02787 20-698, species assumed): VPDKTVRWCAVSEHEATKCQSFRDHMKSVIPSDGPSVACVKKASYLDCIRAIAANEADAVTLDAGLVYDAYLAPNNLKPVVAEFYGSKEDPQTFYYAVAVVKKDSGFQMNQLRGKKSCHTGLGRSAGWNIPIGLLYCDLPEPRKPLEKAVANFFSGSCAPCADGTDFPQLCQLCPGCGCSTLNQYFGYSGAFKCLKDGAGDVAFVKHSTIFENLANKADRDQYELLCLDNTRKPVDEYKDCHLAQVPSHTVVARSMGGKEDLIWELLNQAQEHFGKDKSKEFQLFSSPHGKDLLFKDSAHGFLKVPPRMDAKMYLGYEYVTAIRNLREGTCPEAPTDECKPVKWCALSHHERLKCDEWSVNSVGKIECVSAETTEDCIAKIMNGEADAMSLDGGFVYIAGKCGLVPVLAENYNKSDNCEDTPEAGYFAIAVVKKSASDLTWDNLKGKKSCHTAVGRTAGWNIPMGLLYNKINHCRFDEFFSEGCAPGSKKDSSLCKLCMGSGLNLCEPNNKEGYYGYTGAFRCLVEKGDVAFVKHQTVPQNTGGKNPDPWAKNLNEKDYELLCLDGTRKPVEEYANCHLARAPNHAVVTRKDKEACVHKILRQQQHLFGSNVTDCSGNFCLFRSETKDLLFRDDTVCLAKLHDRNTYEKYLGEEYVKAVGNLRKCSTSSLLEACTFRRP
Description: The capacity for hinokitiol to remove iron from transferrin was determined through a ^55Fe assay adapted from Cerami and coworkers (62). ^55Fe was loaded onto transferrin (Tf) similar to previously described in PBS buffer (63). Increasing hinokitiol doses (from 1000X stocks in DMSO) were added to a solution of ^55Fe2Tf (1 nM) in PBS buffer to give the final indicated concentrations. The solution was incubated at 37° C. for 3 hours. After incubation, any ^55Fe bound to hinokitiol was isolated by extraction of iron:hinokitiol complexes with EtOAc. The radioactive levels in the organic layer were determined after dilution in scintillation cocktail.

[6] = Iron (III) binding affinity, EDTA or citrate competition assay; conditions: for KA for iron (III): EDTA competition (citrate for maltol), pH 7.0
Description: as §1

[7] = system: fet3Δftr1Δ yeast; assay: Growth rescue of iron-deficient yeast with small molecules on agar plates; type: cell-based, Saccharomyces cerevisiae; conditions: low iron SD-agar plates, 10 μM FeCl3
[8] = system: DMT1-deficient Caco-2 monolayers; assay: 55Fe immunoprecipitation of ferritin in Caco-2 monolayers; type: cell-based, Human; conditions: apical hinokitiol 500 nM
Description: Immunoprecipitation of ferritin was performed using human anti-FTL1 (Santa Cruz sc-74513) and Protein G PLUS-Agarose beads (Santa Cruz sc-2002). […] Cell lysate was incubated with primary antibody (1:100 dilution) at room temperature for 1 hour, then with the secondary antibody (1:10 dilution) at room temperature for 1 hour with constant mixing. Repeated centrifugations and PBS rinses were performed, and the radioactive levels in the agarose pellet were determined by dilution in scintillation fluid.

[9] = system: mice injected with turpentine oil (TO); assay: Acute anemia of inflammation model, turpentine oil injection; type: in vivo; conditions: once daily for 3 days, 16 h post-injection
Description: FIGS. 27A-27E show hinokitiol efficacy in a model of acute anemia of inflammation (Al). Mice (male; C57BL/6; 7-week-old; n=8-10) were administered turpentine oil (TO) (5 mL/kg) or saline, and euthanized 3, 6, 12, 16, 24 h post injection. (A) Hepcidin mRNA measured by qPCR. (B) Proteins quantified by Western blot analysis. (C) Tissue and serum non-heme iron measured by bathophenanthroline colorimetric assay. (D) Hematocrit measured by centrifugation of heparinized capillaries. (E) Mice given compounds indicated once daily for 3 days. On the third day, mice injected with saline or TO, and euthanized 16 h post-injection.
Injection of turpentine oil (TO) is a common method to induce inflammation in mice. […] As a result, iron buildup occurred in the duodenum and spleen. Moreover, serum iron decreased (FIG. 27C) without affecting hematocrit values (FIG. 27D).

[10] = system: wild type J774 macrophages; assay: 55Fe release from wild type J774 macrophages; type: cell-based, mouse; conditions: same concentration as in deficient system
Description: J774 cells were grown in 12-well plates to ˜80% confluency. The cells were then treated with vehicle or hepcidin in fresh J774 Complete media (1 mL) and incubated at 37° C. for 1 hour. After incubation, the media was aspirated, and then a ^55Fe2Tf (50 nM) solution in J774 Complete media (1 mL) containing vehicle or hepcidin was added. The cells were incubated at 37° C. for 10 minutes, and the media was removed. The cells were rinsed with PBS (×2), and then rinsed with J774 Complete media (1 mL) for 10 minutes at 37° C. The media was aspirated, and J774 Complete media (1 mL) containing DMSO or small molecule (5 μM unless otherwise noted, 1000X dilution) was then added in the presence or absence of hepcidin. At the indicated times, aliquots (<100 μL) of the media were removed, diluted in scintillation cocktail, and radioactivity was determined by liquid scintillation counting. After completion of the experiment, the media was removed, the cells were rinsed with PBS, and the cells were lysed with 500 μL of 200 mM NaOH at 37° C. for 2 hours with continuous shaking (50 rpm). The cell lysate was diluted in scintillation cocktail and intracellular ^55Fe levels were determined by liquid scintillation counting. The % ^55Fe release was determined by the ratio of extracellular ^55Fe to total (intracellular+ extracellular) ^55Fe at the indicated times.

SMILES: CC(C)c1cccc(=O)c(O)c1 [hinokitiol]
- liver total iron (ICP-MS) ([1]; 10 mg/kg IP): releases iron from the liver
- liver non-heme iron ([1]; 1-50 mg/kg IP): dose-dependent decrease
- non-heme iron in other tissues ([1]; IP): suggestive of reductions in non-heme iron
- pKa [2]: 7.33
- hemoglobinization and GFP-positive erythrocytes ([3]; Mfrn1-deficient morphant zebrafish, forty-eight hours): restored hemoglobinization and the number of GFP-positive erythrocytes
- anemic phenotype ([3]; embryos from heterozygous cross of +/frs fish): rescued the anemic phenotype
- KA for iron (II) ([4]; pH 7.0): 5.1×10^15
- KA for iron (II) ([4]; pH 7.0, listed as Hinokitiol): 5.1 × 10^15
- excess of hinokitiol relative to transferrin needed to remove iron [5]: > 1,000 fold
- KA for iron (III) [6]: 5.8×10^25
- KA for iron (III) ([6]; listed as Hinokitiol): 5.8 × 10^25
- pFe^III ([6]; estimated from known pFe of EDTA (citrate for maltol)): 23.7^†
- growth rescue of fet3Δftr1Δ yeast [7]: highly effective
- 55Fe incorporation into ferritin [8]: allows for ^55Fe incorporation into ferritin
- hypoferremia induced by TO injection [9]: mitigated
- effect on iron release in wild type system [10]: negligible effects

— patent US12084411B2, “Hinokitiol analogues, methods of preparing and pharmaceutical compositions thereof” (The Board of Trustees of the University of Illinois, priority 2018, dated 2024)
